From PubChem BioAssay AID2060504 (Molecular Pharmacology Branch, DTP, NCI, 2025)

Test system: 636577-100-R-J1-PDC complex spheroid viability
Assay: Anticancer human tumor 636577-100-R-J1-PDC patient-derived endometrial adenocarcinoma cell line growth inhibition [GQUAD]
Details: for IC50: curve of first compound; for viability, T/C: stronger effect = lower value
Method in brief: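 Tumor cells were grown as complex spheroids with HUVEC endothelial cells and mesenchymal stem cells as stroma. G-quadruplex stabilizers were combined with targeted agents over half-log dilutions from near the clinical Cmax, or from 10 microM.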

[1] = second compound 0.0316 µM, first compound 0.0316 µM
[2] = second compound 0.0316 µM, first compound 0.1 µM
[3] = second compound 0.0316 µM, first compound 0.316 µM
[4] = second compound 0.0316 µM, first compound 1 µM
[5] = second compound 0.0316 µM, first compound 3.16 µM
[6] = second compound 0.0316 µM, first compound 10 µM
[7] = second compound 0.1 µM, first compound 0.0316 µM
[8] = second compound 0.1 µM, first compound 0.1 µM
[9] = second compound 0.1 µM, first compound 0.316 µM
[10] = second compound 0.1 µM, first compound 1 µM
[11] = second compound 0.1 µM, first compound 3.16 µM
[12] = second compound 0.1 µM, first compound 10 µM
[13] = second compound 0.316 µM, first compound 0.0316 µM
[14] = second compound 0.316 µM, first compound 0.1 µM
[15] = second compound 0.316 µM, first compound 0.316 µM
[16] = second compound 0.316 µM, first compound 1 µM
[17] = second compound 0.316 µM, first compound 3.16 µM
[18] = second compound 0.316 µM, first compound 10 µM
[19] = second compound 1 µM, first compound 0.0316 µM
[20] = second compound 1 µM, first compound 0.1 µM
[21] = second compound 1 µM, first compound 0.316 µM
[22] = second compound 1 µM, first compound 1 µM
[23] = second compound 1 µM, first compound 3.16 µM
[24] = second compound 1 µM, first compound 10 µM
[25] = second compound 3.16 µM, first compound 0.0316 µM
[26] = second compound 3.16 µM, first compound 0.1 µM
[27] = second compound 3.16 µM, first compound 0.316 µM
[28] = second compound 3.16 µM, first compound 1 µM
[29] = second compound 3.16 µM, first compound 3.16 µM
[30] = second compound 3.16 µM, first compound 10 µM
[31] = second compound 10 µM, first compound 0.0316 µM
[32] = second compound 10 µM, first compound 0.1 µM
[33] = second compound 10 µM, first compound 0.316 µM
[34] = second compound 10 µM, first compound 1 µM
[35] = second compound 10 µM, first compound 3.16 µM
[36] = second compound 10 µM, first compound 10 µM
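Note: viability read after seven days of drug exposure.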
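Throughout, for viability, T/C: luminescence signal used as a proxy for viable cells; 100% = DMSO vehicle control wells.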

## COc1ccc([C@@H](O)c2cc(-c3ncnc4cc(N5CCOCC5)ccc34)c(F)cc2Cl)nn1 + CN(C)c1ccc(Nc2c3ccc(NC(=O)CCN4CCCC4)cc3nc3cc(NC(=O)CCN4CCCC4)ccc23)cc1
Second compound 0.0316 µM
  IC50: 1.56 µM
Second compound 0.1 µM
  IC50: 0.486 µM
Second compound 0.316 µM
  IC50: 0.466 µM
Second compound 1 µM
  IC50: 0.153 µM
Second compound 3.16 µM
  IC50: < 0.0316 µM
Second compound 10 µM
  IC50: < 0.0316 µM
[1]
  viability, T/C: 93.7%
[2]
  viability, T/C: 98%
[3]
  viability, T/C: 88.5%
[4]
  viability, T/C: 55.3%
[5]
  viability, T/C: 39.1%
[6]
  viability, T/C: 20.1%
[7]
  viability, T/C: 102%
[8]
  viability, T/C: 63.5%
[9]
  viability, T/C: 58.3%
[10]
  viability, T/C: 44%
[11]
  viability, T/C: 37%
[12]
  viability, T/C: 19.8%
[13]
  viability, T/C: 77.5%
[14]
  viability, T/C: 77.2%
[15]
  viability, T/C: 61%
[16]
  viability, T/C: 27.6%
[17]
  viability, T/C: 24%
[18]
  viability, T/C: 12.1%
[19]
  viability, T/C: 73.2%
[20]
  viability, T/C: 47.4%
[21]
  viability, T/C: 50.6%
[22]
  viability, T/C: 25.5%
[23]
  viability, T/C: 17.4%
[24]
  viability, T/C: 11.7%
[25]
  viability, T/C: 35.3%
[26]
  viability, T/C: 40.5%
[27]
  viability, T/C: 24%
[28]
  viability, T/C: 14.5%
[29]
  viability, T/C: 9.36%
[30]
  viability, T/C: 7.69%
[31]
  viability, T/C: 5.37%
[32]
  viability, T/C: 4.81%
[33]
  viability, T/C: 3.18%
[34]
  viability, T/C: 2.32%
[35]
  viability, T/C: 1.95%
[36]
  viability, T/C: 0.58%

## Cn1ncnc1[C@H]1c2n[nH]c(=O)c3cc(F)cc(c23)N[C@@H]1c1ccc(F)cc1 + Cc1[nH]c2ccc(F)cc2c1-c1nc2c3cccnc3c3ncccc3c2[nH]1
Second compound 0.0316 µM
  IC50: 0.0293 µM
Second compound 0.1 µM
  IC50: 0.0777 µM
Second compound 0.316 µM
  IC50: 0.0345 µM
Second compound 1 µM
  IC50: 0.0827 µM
Second compound 3.16 µM
  IC50: < 0.000999 µM
Second compound 10 µM
  IC50: 0.0866 µM
Second compound 0.0316 µM, first compound 0.000999 µM
  viability, T/C: 49.4%
Second compound 0.0316 µM, first compound 0.00316 µM
  viability, T/C: 88%
Second compound 0.0316 µM, first compound 0.00999 µM
  viability, T/C: 94.7%
[1]
  viability, T/C: 48%
Second compound 0.0316 µM, first compound 0.0999 µM
  viability, T/C: 46.8%
[3]
  viability, T/C: 39.2%
Second compound 0.1 µM, first compound 0.000999 µM
  viability, T/C: 82.3%
Second compound 0.1 µM, first compound 0.00316 µM
  viability, T/C: 110%
Second compound 0.1 µM, first compound 0.00999 µM
  viability, T/C: 85%
[7]
  viability, T/C: 59%
Second compound 0.1 µM, first compound 0.0999 µM
  viability, T/C: 54.2%
[9]
  viability, T/C: 30.8%
Second compound 0.316 µM, first compound 0.000999 µM
  viability, T/C: 64.6%
Second compound 0.316 µM, first compound 0.00316 µM
  viability, T/C: 102%
Second compound 0.316 µM, first compound 0.00999 µM
  viability, T/C: 68.7%
[13]
  viability, T/C: 51.8%
Second compound 0.316 µM, first compound 0.0999 µM
  viability, T/C: 50.9%
[15]
  viability, T/C: 35.7%
Second compound 1 µM, first compound 0.000999 µM
  viability, T/C: 35.3%
Second compound 1 µM, first compound 0.00316 µM
  viability, T/C: 76.3%
Second compound 1 µM, first compound 0.00999 µM
  viability, T/C: 63.1%
[19]
  viability, T/C: 68.7%
Second compound 1 µM, first compound 0.0999 µM
  viability, T/C: 47.9%
[21]
  viability, T/C: 38.4%
Second compound 3.16 µM, first compound 0.000999 µM
  viability, T/C: 36%
Second compound 3.16 µM, first compound 0.00316 µM
  viability, T/C: 36.9%
Second compound 3.16 µM, first compound 0.00999 µM
  viability, T/C: 43.2%
[25]
  viability, T/C: 37.5%
Second compound 3.16 µM, first compound 0.0999 µM
  viability, T/C: 35.5%
[27]
  viability, T/C: 25.3%
Second compound 10 µM, first compound 0.000999 µM
  viability, T/C: 62.5%
Second compound 10 µM, first compound 0.00316 µM
  viability, T/C: 47%
Second compound 10 µM, first compound 0.00999 µM
  viability, T/C: 62.2%
[31]
  viability, T/C: 57.9%
Second compound 10 µM, first compound 0.0999 µM
  viability, T/C: 46.5%
[33]
  viability, T/C: 36.4%

## CC1COCCN1c1cc(-c2ccnn2C)c2ccnc(-c3ccn[nH]3)c2n1 (stereo unspecified) + CN(C)c1ccc(Nc2c3ccc(NC(=O)CCN4CCCC4)cc3nc3cc(NC(=O)CCN4CCCC4)ccc23)cc1
Second compound 0.0316 µM
  IC50: 0.0669 µM
Second compound 0.1 µM
  IC50: 0.0637 µM
Second compound 0.316 µM
  IC50: 0.0533 µM
Second compound 1 µM
  IC50: 0.032 µM
Second compound 3.16 µM
  IC50: < 0.0316 µM
Second compound 10 µM
  IC50: < 0.0316 µM
[1]
  viability, T/C: 70%
[2]
  viability, T/C: 39%
[3]
  viability, T/C: 21.6%
[4]
  viability, T/C: 13.2%
[5]
  viability, T/C: 7.12%
[6]
  viability, T/C: 3.43%
[7]
  viability, T/C: 67.8%
[8]
  viability, T/C: 36.9%
[9]
  viability, T/C: 23.4%
[10]
  viability, T/C: 13.1%
[11]
  viability, T/C: 5.95%
[12]
  viability, T/C: 2.75%
[13]
  viability, T/C: 62.1%
[14]
  viability, T/C: 34.5%
[15]
  viability, T/C: 21.6%
[16]
  viability, T/C: 13.4%
[17]
  viability, T/C: 5%
[18]
  viability, T/C: 3.28%
[19]
  viability, T/C: 52%
[20]
  viability, T/C: 27.8%
[21]
  viability, T/C: 22.7%
[22]
  viability, T/C: 14%
[23]
  viability, T/C: 7.85%
[24]
  viability, T/C: 3.23%
[25]
  viability, T/C: 30.8%
[26]
  viability, T/C: 24.2%
[27]
  viability, T/C: 19.4%
[28]
  viability, T/C: 11.3%
[29]
  viability, T/C: 5.18%
[30]
  viability, T/C: 2.8%
[31]
  viability, T/C: 4.8%
[32]
  viability, T/C: 3.22%
[33]
  viability, T/C: 2.72%
[34]
  viability, T/C: 2.01%
[35]
  viability, T/C: 1.02%
[36]
  viability, T/C: 0.62%
